Measured values from patent US8008251B2, “Macrocyclic inhibitors of hepatitis C virus” (Tibotec Pharmaceuticals Ltd., priority 2005, dated 2011).
Where two headings read alike, the source gives them in different places.

How the values were obtained:
[1] = rcm bond, Hoveyda-Grubbs 1st generation catalyst, 1,2-dichloroethane, 83.0 °C
[2] = In vitro metabolic blocking by ritonavir in human liver microsomes; format: in vitro ADME; conditions: human liver microsomes 1 mg/ml
Description: Different HCV NS3/4a protease inhibitors were tested in a metabolic blocking experiment using 3 μM test compound together with 10 μM ritonavir acting as booster. Test compounds and ritonavir were added to human liver microsomes (protein concentration 1 mg/ml) suspended in potassium phosphate buffer (pH=7.4), to get final reaction mixture concentrations of 3 μM test compound and 10 μM ritonavir. In the non-boosted parallel reactions, ritonavir was not added. Boiled human liver microsomes were used for blank experiments. After addition (in a 1:3 ratio) of a cofactor mixture consisting of β-nicotinamide adenine dinucleotide phosphate (β-NADP, 0.5 mg/ml, 653.2 μM), D-Glucose-6-phosphate (2 mg/ml, 7.1 mM), Glucose-6-phosphate dehydrogenase (1.5 U/ml) in 2% NaHCO3, the reaction mixture was incubated at 37° C. for 30 or 120 minutes after which the reaction was stopped by increasing the temperature to 95° C. Test compound concentrations were determined using HPLC-MS.
Values are percentages of test compound detected after the indicated incubation times as compared to the initial test compound concentration. Each value is the mean of the results of two independent experiments.

[3] = tested on: HCV replicons (NS3-NS5B regions of HCV type 1b) in Huh-7 luc/neo cells; assay: HCV replicon assay (Huh-Luc, luciferase readout); format: cell-based; conditions: Hepatitis C virus, Huh-7, 72 h, three days incubation, luciferase activity
Description: The in vitro antiviral activity against HCV of the compounds of formula (I) was tested in a cellular HCV replicon system based on Lohmann et al. (1999) Science 285:110-113, with the further modifications described by Krieger et al. (2001), Journal of Virology 75: 4614-4624, which is further exemplified in the examples section. This model, while not a complete infection model for HCV, is widely accepted as the most robust and efficient model of autonomous HCV RNA replication currently available. […] It will be appreciated that it is important to distinguish between compounds that specifically interfere with HCV functions from those that exert cytotoxic or cytostatic effects in the HCV replicon model, and as a consequence cause a decrease in HCV RNA or linked reporter enzyme concentration. Assays are known in the field for the evaluation of cellular cytotoxicity based for example on the activity of mitochondrial enzymes using fluorogenic redox dyes such as resazurin. Furthermore, cellular counter screens exist for the evaluation of non-selective inhibition of linked reporter gene activity, such as firefly luciferase. Appropriate cell types can be equipped by stable transfection with a luciferase reporter gene whose expression is dependent on a constitutively active gene promoter, and such cells can be used as a counter-screen to eliminate non-selective inhibitors.
The compounds of formula (I) were examined for activity in the inhibition of HCV RNA replication in a cellular assay. […] The cellular assay was based on a bicistronic expression construct, as described by Lohmann et al. (1999) Science vol. 285 pp. 110-113 with modifications described by Krieger et al. (2001) Journal of Virology 75: 4614-4624, in a multi-target screening strategy. In essence, the method was as follows.
The assay utilized the stably transfected cell line Huh-7 luc/neo (hereafter referred to as Huh-Luc). This cell line harbors an RNA encoding a bicistronic expression construct comprising the wild type NS3-NS5B regions of HCV type 1b translated from an Internal Ribosome Entry Site (IRES) from encephalomyocarditis virus (EMCV), preceded by a reporter portion (FfL-luciferase), and a selectable marker portion (neo^R, neomycine phosphotransferase). […]
The replicon cells were plated in 384 well plates in the presence of the test and control compounds which were added in various concentrations. Following an incubation of three days, HCV replication was measured by assaying luciferase activity (using standard luciferase assay substrates and reagents and a Perkin Elmer ViewLux™ ultraHTS microplate imager). […] The inhibitory activity of the compound on luciferase activity was monitored on the Huh-Luc cells, enabling a dose-response curve for each test compound.

[4] = Oral pharmacokinetics in dog with and without ritonavir boosting; format: in vivo, male Beagle dogs; conditions: single oral 10 mg/kg, boosted with ritonavir (Norvir 100 mg capsule) vs non-boosted
Description: Oral pharmacokinetics of Compound nr. 9 in male Beagle dogs after a single dose at 10 mg/kg, using a formulation in 50% PEG400/water and the influence of “boosting” with 10 mg/kg ritonavir were investigated.
Six male Beagle dogs (body weight 8-10 kg) were randomly divided into 2 groups of 3 animals (boosted and non-boosted). No untreated or vehicle-treated control animals were included. […] Drinking water remained available throughout the experiment.
Dogs from the non-boosted group received a single oral 10 mg/kg dose of Compound nr. 9, formulated as a 5 mg/ml 50% PEG400/water. Dogs from the boosted group received a single soft capsule of Norvir® (ritonavir, 100 mg/capsule), about 30 minutes before single oral dosing with 10 mg/kg of Compound nr. 9. The drug formulations were administered by oral gavage, using a gastric tube.
A 3 ml blood sample was collected at 0.5 h 1 h, 2 h, 4 h, 6 h, 8 h and 24 hours after dosing of Compound nr. 9. Plasma concentrations were determined using HPLC-MS. Results are shown in the table 5 below, expressed as fold change in pharmacokinetic parameter of the boosted group as compared to the non-boosted group.

[5] = in vitro; conditions: human, Caco-2
[6] = molecular target: T1, full-length hepatitis C NS3 protease enzyme with NS4A cofactor (HCV NS3/4A protease) (Hepatitis C virus genotype 1a, UniProt P27958); assay: Enzymatic inhibition assay of HCV NS3/4A protease; format: biochemical
T1 construct: full-length hepatitis C NS3 protease enzyme
Description: [Landro, Biochemistry, 1997, 36(31): 9340-9348]. […] The solutions were stored at −20° C. between measurements.
[Liu, 1999 Analytical Biochemistry 267 331-335].

[7] = reference compounds for permeability assay; cited from earlier work

T1 sequence (P27958 1027-1657, other chains not shown): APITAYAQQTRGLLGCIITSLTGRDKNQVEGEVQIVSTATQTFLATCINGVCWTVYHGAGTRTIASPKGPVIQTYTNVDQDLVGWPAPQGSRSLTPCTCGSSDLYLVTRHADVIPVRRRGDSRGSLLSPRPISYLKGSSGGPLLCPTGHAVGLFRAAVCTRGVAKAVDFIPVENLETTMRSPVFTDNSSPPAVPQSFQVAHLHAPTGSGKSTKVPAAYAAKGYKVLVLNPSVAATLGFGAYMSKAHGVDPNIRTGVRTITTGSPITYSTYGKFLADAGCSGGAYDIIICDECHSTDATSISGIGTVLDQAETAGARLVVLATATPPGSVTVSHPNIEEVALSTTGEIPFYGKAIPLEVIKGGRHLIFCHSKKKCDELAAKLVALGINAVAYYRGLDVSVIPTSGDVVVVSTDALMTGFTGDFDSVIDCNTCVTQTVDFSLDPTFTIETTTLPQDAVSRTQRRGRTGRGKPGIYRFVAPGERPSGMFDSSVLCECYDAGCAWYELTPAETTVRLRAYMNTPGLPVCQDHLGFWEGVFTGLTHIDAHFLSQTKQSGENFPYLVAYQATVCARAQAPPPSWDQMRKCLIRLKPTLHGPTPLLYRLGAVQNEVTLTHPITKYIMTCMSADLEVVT

SMILES | EC50 [3] [µM] | Papp at 120 min, 10 μM [5] [×10⁻⁶ cm/s] | Ki [6] [nM] | also measured
CCOC(=O)C12CC1C=CCCCCCNC(=O)N1CC(Oc3cc(-c4nc(C(C)C)cs4)nc4cc(OC)ccc34)CC1C(=O)N2 (stereo not shown) | – | – | – | ring closure, yield of all isomers ([1]; from C=CCCCCCNC(=O)N1CC(Oc2cc(-c3nc(C(C)C)cs3)nc3cc(OC)ccc23)CC1C(=O)NC1(C(=O)OCC)CC1C=C, 2.2 mM, 16.0 h): 57%
CCOC(=O)C12CC1C=CCCCCN(C)C(=O)N1CC(OC(=O)c3ccc([N+](=O)[O-])cc3)CC1C(=O)N2 (stereo not shown) | – | – | – | ring closure, yield of all isomers ([1]; from C=CCCCCN(C)C(=O)N1CC(OC(=O)c2ccc([N+](=O)[O-])cc2)CC1C(=O)NC1(C(=O)OCC)CC1C=C, 1.93 mM): 74%
CCOC(=O)C12CC1C=CCCCCN(C)C(=O)N1CC(Oc3cc(-c4nc(C(C)C)cs4)nc4cc(OC)ccc34)CC1C(=O)N2 (stereo not shown) | – | – | – | ring closure, yield of all isomers ([1]; from C=CCCCCN(C)C(=O)N1CC(Oc2cc(-c3nc(C(C)C)cs3)nc3cc(OC)ccc23)CC1C(=O)NC1(C(=O)OCC)CC1C=C, 1.45 mM): 74%
COc1ccc2c(O[C@@H]3C[C@H]4C(=O)N[C@]5(C(=O)NS(=O)(=O)C6CC6)C[C@H]5/C=C\CCCCCNC(=O)N4C3)cc(-c3nc(C(C)C)cs3)nc2c1 [Compound 9, N-[18-[2-(4-isopropylthiazol-2-yl)-7-methoxyquinolin-4-yl-oxy]-2,15-dioxo-3,14,16-triazatricyclo[14.3.0.0^4,6]nonadec-7-ene-4-carbonyl]-(cyclopropyl)sulfonamide] | 0.007 | 11 | 0.12 | % Detected Compound, 30′, ritonavir ([2]; 3 μM test compound + 10 μM ritonavir, 30 min): 88%; % Detected Compound, 120′, ritonavir ([2]; 3 μM test compound + 10 μM ritonavir, 120 min): 100%; % Detected Compound, 30′, No Booster ([2]; 3 μM test compound, 30 min, no ritonavir): 44%; % Detected Compound, 120′, No Booster ([2]; 3 μM test compound, 120 min, no ritonavir): 0%; Fold increase in AUC when boosted with ritonavir [4]: 55 fold; Fold increase in Cmax when boosted with ritonavir [4]: 31 fold
COc1ccc2c(O[C@@H]3C[C@H]4C(=O)N[C@]5(C(=O)NS(=O)(=O)C6CC6)C[C@H]5/C=C\CCCCNC(=O)N4C3)cc(-c3nc(C(C)C)cs3)nc2c1 [Compound 26, Cyclopropanesulphonic acid {17-[2-(4-isopropylthiazol-2-yl)-7-methoxyquinolin-4-yloxy]-2,14-dioxo-3,13,15-triaza-tricyclo[13.3.0.0^4,6]-octadec-7-ene-4-carbonyl}-amide] | 0.0064 | 3.6 | 0.4 | –
COc1ccc2c(O[C@@H]3C[C@H]4C(=O)N[C@]5(C(=O)NS(=O)(=O)C6(C)CC6)C[C@H]5/C=C\CCCCNC(=O)N4C3)cc(-c3nc(C(C)C)cs3)nc2c1 [Compound 28, 1-Methyl-cyclopropanesulphonic acid [17-[2-(4-isopropyl-thiazol-2-yl)-7-methoxyquinolin-4-yloxy]-2,14-dioxo-3,13,15-triaza-tricyclo-[13.3.0.0^4,6]octadec-7-ene-4-carbonyl]-amide] | 0.0023 | 8.6 | 0.3 | –
COc1ccc2c(O[C@@H]3C[C@H]4C(=O)N[C@]5(C(=O)NS(=O)(=O)C6(C)CC6)C[C@H]5/C=C\CCCCCNC(=O)N4C3)cc(-c3nc(C(C)C)cs3)nc2c1 [Compound 33, 1-Methyl-cyclopropanesulphonic acid [18-[2-(4-isopropyl-thiazol-2-yl)-7-methoxyquinolin-4-yloxy]-2,15-dioxo-3,14,16-triaza-tricyclo-[14.3.0.0^4,6]nonadec-7-ene-4-carbonyl]-amide] | 0.0036 | 31 | 0.3 | –
N[C@@H](Cc1ccccc1)C(=O)O [L-Phenylalanine] | – | – | – | % absorption in man [7]: 100%
